From patent US20080114007A1 (priority 2006, published 2008)

biological target: CSF-1R (Homo sapiens, UniProt P07333); test: Peptide (non-phosphorylated) assay, fluorescence polarization competition immunoassay; assay type: biochemical; conditions: 0.7 nM CSF-1R, 308 μM SYEGNSYTFIDPTQ peptide, 1 mM ATP, 80 min; mean of at least three determinations; read-out: c-fms Peptide IC50
How it was run: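 Read-out is fluorescence polarization: after EDTA quench, anti-phosphotyrosine antibody plus PTK green tracer compete with the phosphorylated peptide for 30 min. The CSF-1R reaction itself ran 80 min at room temperature after ATP addition. DMSO (4%) wells served as controls, positive controls pre-treated with EDTA.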

CSF-1R, sequence (P07333 20-972): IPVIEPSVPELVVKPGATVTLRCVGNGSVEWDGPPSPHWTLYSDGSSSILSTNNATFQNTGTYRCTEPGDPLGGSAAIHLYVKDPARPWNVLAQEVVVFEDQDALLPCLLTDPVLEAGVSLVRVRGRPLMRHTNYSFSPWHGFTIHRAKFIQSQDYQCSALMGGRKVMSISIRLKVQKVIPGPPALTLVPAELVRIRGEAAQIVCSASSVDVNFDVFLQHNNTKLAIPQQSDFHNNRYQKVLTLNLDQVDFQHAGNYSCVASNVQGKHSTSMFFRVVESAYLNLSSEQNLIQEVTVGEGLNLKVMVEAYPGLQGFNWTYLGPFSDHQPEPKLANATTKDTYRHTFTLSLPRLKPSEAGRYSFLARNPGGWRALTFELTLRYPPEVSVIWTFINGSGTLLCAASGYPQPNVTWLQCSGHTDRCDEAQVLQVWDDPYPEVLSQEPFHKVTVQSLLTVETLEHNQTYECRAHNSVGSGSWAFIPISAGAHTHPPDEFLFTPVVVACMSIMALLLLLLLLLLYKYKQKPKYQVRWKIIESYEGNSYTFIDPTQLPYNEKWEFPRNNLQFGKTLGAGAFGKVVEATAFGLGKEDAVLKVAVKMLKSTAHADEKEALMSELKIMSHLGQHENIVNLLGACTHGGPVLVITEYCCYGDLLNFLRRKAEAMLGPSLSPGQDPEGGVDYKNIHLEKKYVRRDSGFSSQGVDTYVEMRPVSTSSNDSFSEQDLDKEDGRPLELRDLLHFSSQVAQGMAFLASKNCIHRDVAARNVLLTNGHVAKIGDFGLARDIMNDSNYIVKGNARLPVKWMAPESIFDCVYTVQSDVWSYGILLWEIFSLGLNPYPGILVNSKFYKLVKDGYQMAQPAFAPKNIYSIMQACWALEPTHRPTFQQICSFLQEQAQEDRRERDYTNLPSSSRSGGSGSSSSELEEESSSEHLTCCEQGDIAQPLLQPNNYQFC

Compound | IC50
CCc1ccc(-n2cc(C(=O)NOC)c(=O)c3cnc(Nc4ccc5c(c4)CCN5C(C)=O)nc32)cc1 [Cpd 279, 2-(1-acetyl-2,3-dihydro-1H-indol-5-ylamino)-8-(4-ethyl-phenyl)-5-oxo-5,8-dihydro-pyrido[2,3-d]pyrimidine-6-carboxylic acid methoxy-amide] | 0.3 nM
CCc1ccc(-n2cc(C(=O)NOC)c(=O)c3cnc(Nc4ccc5c(c4)CCN5S(C)(=O)=O)nc32)cc1 [Cpd 280, 8-(4-ethyl-phenyl)-2-(1-methanesulfonyl-2,3-dihydro-1H-indol-5-ylamino)-5-oxo-5,8-dihydro-pyrido[2,3-d]pyrimidine-6-carboxylic acid methoxy-amide] | 0.4 nM
CCc1ccc(-n2cc(C(=O)NOC)c(=O)c3cnc(Nc4ccc5c(c4)N(C(C)=O)CC5)nc32)cc1 [Cpd 281, 2-(1-acetyl-2,3-dihydro-1H-indol-6-ylamino)-8-(4-ethyl-phenyl)-5-oxo-5,8-dihydro-pyrido[2,3-d]pyrimidine-6-carboxylic acid methoxy-amide] | 1.5 nM
CCc1ccc(-n2cc(C(=O)NOC)c(=O)c3cnc(Nc4ccc5c(c4)CNCC5)nc32)cc1 [Cpd 282, 8-(4-ethyl-phenyl)-5-oxo-2-(1,2,3,4-tetrahydro-isoquinolin-7-ylamino)-5,8-dihydro-pyrido[2,3-d]pyrimidine-6-carboxylic acid methoxy-amide] | 0.2 nM
CONC(=O)c1cn(-c2ccc3c(c2)CCC3)c2nc(Nc3ccc(Cn4cncn4)cc3)ncc2c1=O [Cpd 283, 8-indan-5-yl-5-oxo-2-(4-[1,2,4]triazol-1-ylmethyl-phenylamino)-5,8-dihydro-pyrido[2,3-d]pyrimidine-6-carboxylic acid methoxy-amide] | 0.9 nM
CONC(=O)c1cn(-c2ccc3c(c2)CCC3)c2nc(Nc3ccc(-n4cccn4)cc3)ncc2c1=O [Cpd 284, 8-indan-5-yl-5-oxo-2-(4-pyrazol-1-yl-phenylamino)-5,8-dihydro-pyrido[2,3-d]pyrimidine-6-carboxylic acid methoxy-amide] | 2.2 nM
CCc1ccc(-n2cc(C(=O)NOC)c(=O)c3cnc(Nc4ccc5[nH]ccc5c4)nc32)cc1 [Cpd 285, 8-(4-ethyl-phenyl)-2-(1H-indol-5-ylamino)-5-oxo-5,8-dihydro-pyrido[2,3-d]pyrimidine-6-carboxylic acid methoxy-amide] | 0.8 nM
CCc1ccc(-n2cc(C(=O)NOC)c(=O)c3cnc(Nc4ccc5cc[nH]c5c4)nc32)cc1 [Cpd 286, 8-(4-ethyl-phenyl)-2-(1H-indol-6-ylamino)-5-oxo-5,8-dihydro-pyrido[2,3-d]pyrimidine-6-carboxylic acid methoxy-amide] | 1.3 nM
CONC(=O)c1cn(-c2ccc3c(c2)CCC3)c2nc(Nc3ccc4[nH]ccc4c3)ncc2c1=O [Cpd 287, 8-indan-5-yl-2-(1H-indol-5-ylamino)-5-oxo-5,8-dihydro-pyrido[2,3-d]pyrimidine-6-carboxylic acid methoxy-amide] | 0.9 nM
CCc1ccc(-n2cc(C(=O)NOC)c(=O)c3cnc(Nc4ccc5cn[nH]c5c4)nc32)cc1 [Cpd 288, 8-(4-ethyl-phenyl)-2-(1H-indazol-6-ylamino)-5-oxo-5,8-dihydro-pyrido[2,3-d]pyrimidine-6-carboxylic acid methoxy-amide] | 1.5 nM
CONC(=O)c1cn(-c2ccc3c(c2)CCC3)c2nc(Nc3ccc4cc[nH]c4c3)ncc2c1=O [Cpd 289, 8-indan-5-yl-2-(1H-indol-6-ylamino)-5-oxo-5,8-dihydro-pyrido[2,3-d]pyrimidine-6-carboxylic acid methoxy-amide] | 2 nM
CCc1ccc(-n2cc(C(=O)NOC)c(=O)c3cnc(Nc4ccc5c(ccn5C)c4)nc32)cc1 [Cpd 290, 8-(4-ethyl-phenyl)-2-(1-methyl-1H-indol-5-ylamino)-5-oxo-5,8-dihydro-pyrido[2,3-d]pyrimidine-6-carboxylic acid methoxy-amide] | 0.9 nM
CONC(=O)c1cn(-c2ccc3c(c2)CCC3)c2nc(Nc3ccc4c(ccn4C)c3)ncc2c1=O [Cpd 291, 8-indan-5-yl-2-(1-methyl-1H-indol-5-ylamino)-5-oxo-5,8-dihydro-pyrido[2,3-d]pyrimidine-6-carboxylic acid methoxy-amide] | 1.3 nM
CONC(=O)c1cn(-c2ccc3c(c2)CCC3)c2nc(Nc3ccc(C4CCN(CC(F)(F)F)CC4)cc3)ncc2c1=O [Cpd 292, 8-indan-5-yl-5-oxo-2-{4-[1-(2,2,2-trifluoro-ethyl)-piperidin-4-yl]-phenylamino}-5,8-dihydro-pyrido[2,3-d]pyrimidine-6-carboxylic acid methoxy-amide] | 6 nM
CONC(=O)c1cn(-c2ccc3c(c2)CCC3)c2nc(Nc3ccc(C4CCN(CC(F)(F)C(F)(F)F)CC4)cc3)ncc2c1=O [Cpd 293, 8-indan-5-yl-5-oxo-2-{4-[1-(2,2,3,3,3-pentafluoro-propyl)-piperidin-4-yl]-phenylamino}-5,8-dihydro-pyrido[2,3-d]pyrimidine-6-carboxylic acid methoxy-amide] | 2.9 nM
CCc1ccc(-n2cc(C(=O)NOC)c(=O)c3cnc(Nc4ccc5c(c4)OCCOCCOCCOCCOCCO5)nc32)cc1 [Cpd 294, 2-(6,7,9,10,12,13,15,16,18,19-decahydro-5,8,11,14,17,20-hexaoxa-benzocyclooctadecen-2-ylamino)-8-(4-ethyl-phenyl)-5-oxo-5,8-dihydro-pyrido[2,3-d]pyrimidine-6-carboxylic acid methoxy-amide] | 0.4 nM
CCc1ccc(-n2cc(C(=O)NOC)c(=O)c3cnc(Nc4ccc(C5CCN(CCc6ccccc6)CC5)cc4)nc32)cc1 [Cpd 295, 8-(4-ethyl-phenyl)-5-oxo-2-[4-(1-phenethyl-piperidin-4-yl)-phenylamino]-5,8-dihydro-pyrido[2,3-d]pyrimidine-6-carboxylic acid methoxy-amide] | 1.2 nM
CCc1ccc(-n2cc(C(=O)NOC)c(=O)c3cnc(Nc4ccc(O[C@@H]5O[C@H](CO)[C@@H](O)[C@H](O)[C@@H]5O)cc4)nc32)cc1 [Cpd 296, 8-(4-ethyl-phenyl)-5-oxo-2-{4-[(2S,3S,4S,5S,6R)(3,4,5-trihydroxy-6-hydroxymethyl-tetrahydro-pyran-2-yloxy)]-phenylamino}-5,8-dihydro-pyrido[2,3-d]pyrimidine-6-carboxylic acid methoxy-amide] | 0.8 nM
CCc1ccc(-n2cc(C(=O)NOC)c(=O)c3cnc(Nc4ccc5c(c4)OCCOCCOCCOCCO5)nc32)cc1 [Cpd 297, 8-(4-ethyl-phenyl)-2-(6,7,9,10,12,13,15,16-octahydro-5,8,11,14,17-pentaoxa-benzocyclopentadecen-2-ylamino)-5-oxo-5,8-dihydro-pyrido[2,3-d]pyrimidine-6-carboxylic acid methoxy-amide] | 0.4 nM
CCCN1CCC(c2ccc(Nc3ncc4c(=O)c(C(=O)NOC)cn(-c5ccc6c(c5)CCC6)c4n3)cc2)CC1 [Cpd 298, 8-indan-5-yl-5-oxo-2-[4-(1-propyl-piperidin-4-yl)-phenylamino]-5,8-dihydro-pyrido[2,3-d]pyrimidine-6-carboxylic acid methoxy-amide] | 0.4 nM
CCc1ccc(-n2cc(C(=O)NOC)c(=O)c3cnc(Nc4ccc(-c5cccc(OC)c5)cc4)nc32)cc1 [Cpd 299, 8-(4-ethyl-phenyl)-2-(3′-methoxy-biphenyl-4-ylamino)-5-oxo-5,8-dihydro-pyrido[2,3-d]pyrimidine-6-carboxylic acid methoxy-amide] | 32 nM
CONC(=O)c1cn(-c2ccc3c(c2)CCC3)c2nc(Nc3ccccc3)ncc2c1=O [Cpd 300, 8-indan-5-yl-5-oxo-2-phenylamino-5,8-dihydro-pyrido[2,3-d]pyrimidine-6-carboxylic acid methoxy-amide] | 1.5 nM
CCn1cnc2cc(Nc3ncc4c(=O)c(C(=O)NOC)cn(-c5ccc6c(c5)CCC6)c4n3)ccc21 [Cpd 301, 2-(1-ethyl-1H-benzoimidazol-5-ylamino)-8-indan-5-yl-5-oxo-5,8-dihydro-pyrido[2,3-d]pyrimidine-6-carboxylic acid methoxy-amide] | 0.9 nM
CONC(=O)c1cn(-c2ccc3c(c2)CCC3)c2nc(Nc3ccc4[nH]cnc4c3)ncc2c1=O [Cpd 302, 2-(1H-benzoimidazol-5-ylamino)-8-indan-5-yl-5-oxo-5,8-dihydro-pyrido[2,3-d]pyrimidine-6-carboxylic acid methoxy-amide] | 319 nM
CONC(=O)c1cn(-c2ccc3ccccc3c2)c2nc(Nc3ccc(C4CCN(C)CC4)cc3)ncc2c1=O [Cpd 303, 2-[4-(1-methyl-piperidin-4-yl)-phenylamino]-8-naphthalen-2-yl-5-oxo-5,8-dihydro-pyrido[2,3-d]pyrimidine-6-carboxylic acid methoxy-amide] | 1 nM
CCc1ccc(-n2cc(C(=O)NOC)c(=O)c3cnc(Nc4ccc5c(c4)CC(=O)N5)nc32)cc1 [Cpd 304, 8-(4-ethyl-phenyl)-5-oxo-2-(2-oxo-2,3-dihydro-1H-indol-5-ylamino)-5,8-dihydro-pyrido[2,3-d]pyrimidine-6-carboxylic acid methoxy-amide] | 0.6 nM
CCc1ccc(-n2cc(C(=O)NOC)c(=O)c3cnc(Nc4cc(OC)c(OC)c(OC)c4)nc32)cc1 [Cpd 305, 8-(4-ethyl-phenyl)-5-oxo-2-(3,4,5-trimethoxy-phenylamino)-5,8-dihydro-pyrido[2,3-d]pyrimidine-6-carboxylic acid methoxy-amide] | 0.7 nM
CCc1ccc(-n2cc(C(=O)NOC)c(=O)c3cnc(Nc4ccc(-c5ccc(N(C)C)cc5)cc4)nc32)cc1 [Cpd 306, 2-(4′-dimethylamino-biphenyl-4-ylamino)-8-(4-ethyl-phenyl)-5-oxo-5,8-dihydro-pyrido[2,3-d]pyrimidine-6-carboxylic acid methoxy-amide] | 14 nM
CCc1ccc(-n2cc(C(=O)NOC)c(=O)c3cnc(Nc4ccc(OC5CCNCC5)cc4)nc32)cc1 [Cpd 307, 8-(4-ethyl-phenyl)-5-oxo-2-[4-(piperidin-4-yloxy)-phenylamino]-5,8-dihydro-pyrido[2,3-d]pyrimidine-6-carboxylic acid methoxy-amide] | 0.4 nM
